# Measured values published in PubChem BioAssay AID328 (DTP/NCI, 2004).
# Values joined by “and” are separate entries in the source; they are usually repeats but may differ in a detail not shown here. Identical values can stand only once. Toxic doses and inconclusive results are not listed.
# System: BDF1 mice, P388 leukemia ip, median survival T/C
# Test: NCI In Vivo Anticancer Drug Screen. Data for tumor model P388 Leukemia (intraperitoneal) in B6D2F1 (BDF1) mice
# Conditions: endpoint: median survival time, higher = longer survival
# Outline: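 Steps: implant the tumour, treat one group with compound and another with vehicle, record survival, then divide treated by control.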
# [1] = dose: 25.0 mg/kg/injection, schedule: Q01DX009 (ip), vehicle: Klucel (hydroxypropylcellulose) (HPC)
# [2] = dose: 25.0 mg/kg/injection, schedule: Q01DX009 (ip), vehicle: saline with Tween-80
# [3] = dose: 100.0 mg/kg/injection, schedule: Q04DX003 (ip), vehicle: Klucel (hydroxypropylcellulose) (HPC)
# [4] = dose: 50.0 mg/kg/injection, schedule: Q01DX009 (ip), vehicle: saline with Tween-80
# [5] = dose: 100.0 mg/kg/injection, schedule: Q01DX009 (ip), vehicle: saline with Tween-80
# [6] = dose: 6.25 mg/kg/injection, schedule: Q01DX009 (ip), vehicle: saline with Tween-80
# [7] = dose: 200.0 mg/kg/injection, schedule: Q01DX009 (ip), vehicle: saline with Tween-80
# [8] = dose: 400.0 mg/kg/injection, schedule: Q01DX009 (ip), vehicle: saline with Tween-80
# [9] = dose: 25.0 mg/kg/injection, schedule: Q01DX009 (ip), vehicle: saline
# [10] = dose: 50.0 mg/kg/injection, schedule: Q01DX009 (ip), vehicle: saline
# [11] = dose: 100.0 mg/kg/injection, schedule: Q01DX009 (ip), vehicle: saline
# [12] = dose: 100.0 mg/kg/injection, schedule: Q04DX003 (ip), vehicle: saline
# [13] = dose: 200.0 mg/kg/injection, schedule: Q04DX003 (ip), vehicle: saline
# [14] = dose: 100.0 mg/kg/injection, schedule: Q01DX010 (ip), vehicle: carboxymethylcellulose (CMC)
# [15] = dose: 100.0 mg/kg/injection, schedule: Q04DX003 (ip), vehicle: saline with Tween-80
smiles,measurement,setting,value
CS(=O)(=O)OCC(O)C(O)C(O)C(O)COS(C)(=O)=O (centres undefined),T/C,"dose: 25.0 mg/kg/injection, schedule: Q01DX010 (ip), vehicle: saline",108 % of control
same,T/C,"dose: 50.0 mg/kg/injection, schedule: Q01DX010 (ip), vehicle: saline",116 % of control
O=NN(CCBr)C(=O)Nc1ccccc1,T/C,"dose: 4.0 mg/kg/injection, schedule: Q04DX003 (ip), vehicle: Klucel (hydroxypropylcellulose) (HPC)",107 % of control
same,T/C,"dose: 6.5 mg/kg/injection, schedule: Q04DX003 (ip), vehicle: Klucel (hydroxypropylcellulose) (HPC)",119 % of control
same,T/C,"dose: 11.0 mg/kg/injection, schedule: Q01DX009 (ip), vehicle: Klucel (hydroxypropylcellulose) (HPC)",150 % of control and 158 % of control
same,T/C,"dose: 15.0 mg/kg/injection, schedule: Q04DX003 (ip), vehicle: Klucel (hydroxypropylcellulose) (HPC)",162 % of control
same,T/C,"dose: 16.5 mg/kg/injection, schedule: Q01DX009 (ip), vehicle: Klucel (hydroxypropylcellulose) (HPC)",166 % of control
same,T/C,"dose: 16.5 mg/kg/injection, schedule: Q01DX009 (ip), vehicle: saline with Tween-80",185 % of control
same,T/C,[1],195 % of control and 215 % of control
same,T/C,[2],200 % of control
same,T/C,"dose: 29.0 mg/kg/injection, schedule: Q04DX003 (ip), vehicle: Klucel (hydroxypropylcellulose) (HPC)",154 % of control and 168 % of control
same,T/C,"dose: 37.5 mg/kg/injection, schedule: Q01DX009 (ip), vehicle: Klucel (hydroxypropylcellulose) (HPC)",220 % of control
same,T/C,"dose: 37.5 mg/kg/injection, schedule: Q01DX009 (ip), vehicle: saline with Tween-80",210 % of control
same,T/C,"dose: 44.0 mg/kg/injection, schedule: Q04DX003 (ip), vehicle: Klucel (hydroxypropylcellulose) (HPC)",175 % of control and 181 % of control
same,T/C,"dose: 67.0 mg/kg/injection, schedule: Q04DX003 (ip), vehicle: Klucel (hydroxypropylcellulose) (HPC)",167 % of control and 185 % of control and 204 % of control
same,T/C,[3],121 % of control and 211 % of control
same,T/C,"dose: 150.0 mg/kg/injection, schedule: Q04DX003 (ip), vehicle: Klucel (hydroxypropylcellulose) (HPC)",175 % of control
CCCC(=O)OCc1ccc(Cl)c(Cl)c1,T/C,[2],100 % of control
same,T/C,[4],108 % of control
same,T/C,[5],112 % of control
CC(C)(C)c1cc([N+](=O)[O-])cc([N+](=O)[O-])c1O,T/C,"dose: 0.78 mg/kg/injection, schedule: Q01DX009 (ip), vehicle: saline with Tween-80",105 % of control
same,T/C,"dose: 1.56 mg/kg/injection, schedule: Q01DX009 (ip), vehicle: saline with Tween-80",101 % of control
same,T/C,"dose: 3.13 mg/kg/injection, schedule: Q01DX009 (ip), vehicle: saline with Tween-80",101 % of control
same,T/C,[6],99 % of control
CC(C)COC(=O)NCCF,T/C,[6],107 % of control
same,T/C,"dose: 12.5 mg/kg/injection, schedule: Q01DX009 (ip), vehicle: saline with Tween-80",112 % of control
same,T/C,[2],120 % of control
CC(C)c1ncc([N+](=O)[O-])n1C,T/C,[5],100 % of control
same,T/C,[7],87 % of control
same,T/C,[8],100 % of control
CC(C)(Cl)CNC(=O)c1ccc([N+](=O)[O-])cc1,T/C,[3],91 % of control
same,T/C,"dose: 200.0 mg/kg/injection, schedule: Q04DX003 (ip), vehicle: Klucel (hydroxypropylcellulose) (HPC)",104 % of control
same,T/C,"dose: 400.0 mg/kg/injection, schedule: Q04DX003 (ip), vehicle: Klucel (hydroxypropylcellulose) (HPC)",100 % of control
CC(=O)N1CCCCCC1=O,T/C,[4],104 % of control
same,T/C,[5],89 % of control
same,T/C,[7],104 % of control
same,T/C,[8],90 % of control
O=C(O)C1(O)C(Cl)(Cl)C(Cl)=C(Cl)C1(Cl)Cl,T/C,[9],118 % of control
same,T/C,[10],122 % of control
same,T/C,[11],118 % of control
CN(C)c1ccc(/C=N/Nc2ccc(C(C#N)=C(C#N)C#N)cc2)cc1,T/C,[4],101 % of control
same,T/C,[5],89 % of control
same,T/C,[7],86 % of control
C[N+](C)(C)c1ncnc2c1ncn2C1CCCO1 (centres undefined),T/C,[10],100 % of control
same,T/C,[11],109 % of control
same,T/C,[12],100 % of control
same,T/C,[13],100 % of control
C[C@]12CC[C@H]3[C@@H](CC[C@]4(O)C[C@@H](O)CC[C@]34C=O)[C@@]1(O)CC[C@@H]2C1=CC(=O)OC1,T/C,"dose: 12.5 mg/kg/injection, schedule: Q01DX009 (ip), vehicle: Klucel (hydroxypropylcellulose) (HPC)",105 % of control
same,T/C,[1],95 % of control
same,T/C,"dose: 25.0 mg/kg/injection, schedule: Q01DX010 (ip), vehicle: carboxymethylcellulose (CMC)",100 % of control
same,T/C,"dose: 50.0 mg/kg/injection, schedule: Q01DX009 (ip), vehicle: Klucel (hydroxypropylcellulose) (HPC)",109 % of control and 115 % of control
same,T/C,"dose: 100.0 mg/kg/injection, schedule: Q01DX009 (ip), vehicle: Klucel (hydroxypropylcellulose) (HPC)",100 % of control
same,T/C,[14],105 % of control
same,T/C,"dose: 200.0 mg/kg/injection, schedule: Q01DX009 (ip), vehicle: Klucel (hydroxypropylcellulose) (HPC)",100 % of control
same,T/C,"dose: 200.0 mg/kg/injection, schedule: Q01DX010 (ip), vehicle: carboxymethylcellulose (CMC)",105 % of control
COc1ccc(Cc2c3cc(OC)c(OC)cc3cc[n+]2C)cc1OC,T/C,[2],90 % of control
same,T/C,[4],100 % of control
same,T/C,[15],108 % of control
CCCC(N)C(=O)c1ccccc1 (centres undefined),T/C,[9],109 % of control
same,T/C,[10],109 % of control
Nc1ccc(OCc2ccc(S(=O)(=O)F)c(Cl)c2)c(Cl)c1,T/C,"dose: 100.0 mg/kg/injection, schedule: Q01DX001 (ip), vehicle: saline",103 % of control
same,T/C,"dose: 200.0 mg/kg/injection, schedule: Q01DX001 (ip), vehicle: saline",100 % of control
same,T/C,"dose: 400.0 mg/kg/injection, schedule: Q01DX001 (ip), vehicle: saline",92 % of control
NOCc1cccc(C(F)(F)F)c1,T/C,"dose: 75.0 mg/kg/injection, schedule: Q04DX003 (ip), vehicle: saline",91 % of control
same,T/C,"dose: 150.0 mg/kg/injection, schedule: Q04DX003 (ip), vehicle: saline",91 % of control
same,T/C,"dose: 300.0 mg/kg/injection, schedule: Q04DX003 (ip), vehicle: saline",91 % of control
CC(=O)CC(=O)OCc1ccccc1,T/C,[5],100 % of control
same,T/C,[7],118 % of control
same,T/C,[8],100 % of control
CC1=CC(=C2C=CC(=[N+](C)C)C=C2)C=C(C)S1,T/C,"dose: 3.12 mg/kg/injection, schedule: Q01DX009 (ip), vehicle: distilled water + Tween-80 + alcohol",113 % of control
same,T/C,"dose: 6.25 mg/kg/injection, schedule: Q01DX009 (ip), vehicle: distilled water + Tween-80 + alcohol",109 % of control
same,T/C,"dose: 12.5 mg/kg/injection, schedule: Q01DX009 (ip), vehicle: distilled water + Tween-80 + alcohol",114 % of control
same,T/C,"dose: 25.0 mg/kg/injection, schedule: Q01DX009 (ip), vehicle: distilled water + Tween-80 + alcohol",97 % of control
O=C(c1ccco1)C1Cc2ccccc2C1=O (centres undefined),T/C,[5],116 % of control
same,T/C,[15],91 % of control
same,T/C,[7],104 % of control
same,T/C,"dose: 200.0 mg/kg/injection, schedule: Q04DX003 (ip), vehicle: saline with Tween-80",104 % of control
same,T/C,[8],100 % of control
same,T/C,"dose: 400.0 mg/kg/injection, schedule: Q04DX003 (ip), vehicle: saline with Tween-80",108 % of control
Cc1nnc(NC2=NCCO2)s1,T/C,"dose: 50.0 mg/kg/injection, schedule: Q04DX003 (ip), vehicle: saline",86 % of control
same,T/C,[12],90 % of control
same,T/C,[13],90 % of control
N#Cc1cc([N+](=O)[O-])ccc1Cl,T/C,[2],90 % of control
same,T/C,[4],105 % of control
same,T/C,[5],105 % of control
COc1ccc2cc1Oc1ccc(cc1)CC1=NCCc3cc(OC)c(OC)c(c31)Oc1cc3c(cc1OC)CCN(C)C3C2 (centres undefined),T/C,"dose: 67.0 mg/kg/injection, schedule: Q01DX010 (ip), vehicle: carboxymethylcellulose (CMC)",86 % of control
same,T/C,[14],86 % of control
Cc1ccc(-c2nc3ccccc3c(=O)n2/N=C/c2cccc3ccccc23)cc1,T/C,[4],90 % of control
same,T/C,[5],89 % of control
Cc1c(CNc2ccc(C(=O)NC(CC(=O)O)C(=O)O)cc2)ccc2nc(N)nc(N)c12 (centres undefined),T/C,"dose: 6.25 mg/kg/injection, schedule: Q01DX009 (ip), vehicle: saline",100 % of control
same,T/C,"dose: 12.5 mg/kg/injection, schedule: Q01DX009 (ip), vehicle: saline",90 % of control
same,T/C,"dose: 16.5 mg/kg/injection, schedule: Q04DX003 (ip), vehicle: saline with Tween-80",254 % of control
same,T/C,"dose: 25.0 mg/kg/injection, schedule: Q04DX003 (ip), vehicle: saline with Tween-80",272 % of control
same,T/C,"dose: 37.5 mg/kg/injection, schedule: Q04DX003 (ip), vehicle: saline with Tween-80",104 % of control
